Experimental data from ChEMBL document CHEMBL1155821, “Discovery of (-)-7-methyl-2-exo-[3'-(6-[18F]fluoropyridin-2-yl)-5'-pyridinyl]-7-azabicyclo[2.2.1]heptane, a radiolabeled antagonist for cerebral nicotinic acetylcholine receptor (alpha4beta2-nAChR) with optimal positron emission tomography imaging properties” (J Med Chem, 2008).

Assays:
[1] = target: Neuronal acetylcholine receptor; alpha3/beta4 (Rattus norvegicus, UniProt P04757+P12392); assay: Displacement of [3H]epibatidine from rat alpha3beta4 nAChR expressed in HEK293 cells; type: cell-based
Neuronal acetylcholine receptor; alpha3/beta4, sequence (P04757 whole entry): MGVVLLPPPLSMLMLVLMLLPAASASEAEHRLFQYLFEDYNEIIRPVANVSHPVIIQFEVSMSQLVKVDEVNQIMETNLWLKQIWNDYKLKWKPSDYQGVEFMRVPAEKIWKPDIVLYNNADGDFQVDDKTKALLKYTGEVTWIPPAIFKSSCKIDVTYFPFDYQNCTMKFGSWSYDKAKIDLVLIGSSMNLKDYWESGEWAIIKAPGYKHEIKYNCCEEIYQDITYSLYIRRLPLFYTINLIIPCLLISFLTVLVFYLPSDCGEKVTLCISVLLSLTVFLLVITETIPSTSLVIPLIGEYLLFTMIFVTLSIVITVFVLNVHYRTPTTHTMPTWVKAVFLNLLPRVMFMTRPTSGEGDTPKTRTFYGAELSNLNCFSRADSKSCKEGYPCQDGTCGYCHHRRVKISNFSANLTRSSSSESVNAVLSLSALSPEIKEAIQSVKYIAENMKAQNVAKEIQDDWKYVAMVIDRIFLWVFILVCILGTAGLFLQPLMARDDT
Neuronal acetylcholine receptor; alpha3/beta4, sequence (P12392 whole entry): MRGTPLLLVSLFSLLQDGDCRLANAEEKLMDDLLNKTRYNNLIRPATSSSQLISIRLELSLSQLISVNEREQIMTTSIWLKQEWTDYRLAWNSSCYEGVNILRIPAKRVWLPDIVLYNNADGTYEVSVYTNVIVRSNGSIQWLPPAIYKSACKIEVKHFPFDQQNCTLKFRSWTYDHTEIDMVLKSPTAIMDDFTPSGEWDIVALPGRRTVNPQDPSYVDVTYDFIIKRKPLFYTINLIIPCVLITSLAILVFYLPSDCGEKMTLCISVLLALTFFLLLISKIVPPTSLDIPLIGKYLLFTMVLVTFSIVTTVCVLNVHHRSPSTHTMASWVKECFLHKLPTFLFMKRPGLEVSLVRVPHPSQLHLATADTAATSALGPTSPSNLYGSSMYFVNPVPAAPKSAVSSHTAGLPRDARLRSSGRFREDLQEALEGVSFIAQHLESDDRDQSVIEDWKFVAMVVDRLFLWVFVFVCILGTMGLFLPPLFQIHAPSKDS

Mus musculus [2] = assay: Toxicity in CD1 mouse assessed as circling behavior at 1.7 umol/kg, iv; type: organism-based; details: in vivo
[3] = Half life in rhesus monkey thalamus; type: ADME, organism-based, Macaca mulatta
[4] = target: Neuronal acetylcholine receptor subunit alpha-2 (Rattus norvegicus, UniProt P12389+P12390); assay: Displacement of [3H]epibatidine from rat alpha2beta2 nAChR expressed in HEK293 cells; type: cell-based
Neuronal acetylcholine receptor subunit alpha-2, sequence (P12389 whole entry, one chain of several): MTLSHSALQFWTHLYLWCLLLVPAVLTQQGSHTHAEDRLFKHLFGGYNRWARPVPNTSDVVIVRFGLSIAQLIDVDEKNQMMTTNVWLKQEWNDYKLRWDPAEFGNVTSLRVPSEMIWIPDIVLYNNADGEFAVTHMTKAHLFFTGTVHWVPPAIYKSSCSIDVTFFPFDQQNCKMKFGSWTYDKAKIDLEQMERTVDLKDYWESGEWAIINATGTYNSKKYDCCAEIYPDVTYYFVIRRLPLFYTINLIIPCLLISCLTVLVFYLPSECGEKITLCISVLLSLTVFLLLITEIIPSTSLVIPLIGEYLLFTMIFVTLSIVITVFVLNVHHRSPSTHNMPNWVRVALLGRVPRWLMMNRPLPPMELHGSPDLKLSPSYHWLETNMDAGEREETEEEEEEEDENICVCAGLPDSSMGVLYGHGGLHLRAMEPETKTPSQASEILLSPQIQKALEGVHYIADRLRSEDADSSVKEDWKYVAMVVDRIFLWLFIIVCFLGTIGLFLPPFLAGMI

Mus musculus [5] = assay: Toxicity in CD1 mouse assessed as straub tail response at 1.7 umol/kg, iv; type: organism-based; details: in vivo
Mus musculus [6] = assay: Toxicity in CD1 mouse assessed as straub tail response at 0.8 umol/kg, iv; type: organism-based; details: in vivo
Mus musculus [7] = assay: Toxicity in CD1 mouse assessed as seizures at 6.7 umol/kg, iv; type: organism-based; details: in vivo
Mus musculus [8] = assay: Toxicity in CD1 mouse assessed as straub tail response at 3.3 umol/kg, iv; type: organism-based; details: in vivo
[9] = target: Neuronal acetylcholine receptor; alpha2/beta4 (Rattus norvegicus, UniProt P12389+P12392); assay: Displacement of [3H]epibatidine from rat alpha2beta4 nAChR expressed in HEK293 cells; type: cell-based
Neuronal acetylcholine receptor; alpha2/beta4, sequence (P12389 whole entry): as the sequence (P12389 whole entry, one chain of several) above
Neuronal acetylcholine receptor; alpha2/beta4, sequence (P12392 whole entry): as the sequence (P12392 whole entry) above

Mus musculus [10] = assay: Toxicity in CD1 mouse assessed as hyperactivity at 3.3 umol/kg, iv; type: organism-based; details: in vivo
Mus musculus [11] = assay: Toxicity in CD1 mouse assessed as circling behavior at 0.8 umol/kg, iv; type: organism-based; details: in vivo
[12] = target: Neuronal acetylcholine receptor; alpha3/beta2 (Rattus norvegicus, UniProt P04757+P12390); assay: Displacement of [3H]epibatidine from rat alpha3beta2 nAChR expressed in HEK293 cells; type: cell-based
Neuronal acetylcholine receptor; alpha3/beta2, sequence (P04757 whole entry): as the sequence (P04757 whole entry) above
Neuronal acetylcholine receptor; alpha3/beta2, sequence (P12390 whole entry): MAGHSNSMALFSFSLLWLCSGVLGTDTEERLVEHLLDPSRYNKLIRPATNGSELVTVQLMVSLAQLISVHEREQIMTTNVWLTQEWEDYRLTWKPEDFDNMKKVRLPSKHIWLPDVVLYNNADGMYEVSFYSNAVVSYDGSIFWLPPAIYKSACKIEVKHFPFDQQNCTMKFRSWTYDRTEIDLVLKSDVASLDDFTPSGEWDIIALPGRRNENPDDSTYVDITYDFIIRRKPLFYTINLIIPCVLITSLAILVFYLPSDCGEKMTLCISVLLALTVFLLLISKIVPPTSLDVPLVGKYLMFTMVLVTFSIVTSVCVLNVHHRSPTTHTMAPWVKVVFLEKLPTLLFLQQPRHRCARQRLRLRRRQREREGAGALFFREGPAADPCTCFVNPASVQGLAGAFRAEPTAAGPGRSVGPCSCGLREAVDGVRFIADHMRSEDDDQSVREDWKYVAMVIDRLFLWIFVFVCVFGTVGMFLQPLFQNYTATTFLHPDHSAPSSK

Mus musculus [13] = assay: Toxicity in CD1 mouse assessed as straub tail response at 6.7 umol/kg, iv; type: organism-based; details: in vivo
Mus musculus [14] = assay: Toxicity in CD1 mouse assessed as mortality at 2.0 umol/kg, iv; type: organism-based; details: in vivo
Mus musculus [15] = assay: Toxicity in CD1 mouse assessed as seizures at 1.3 umol/kg, iv; type: organism-based; details: in vivo
Mus musculus [16] = assay: Toxicity in CD1 mouse assessed as straub tail response at 1.3 umol/kg, iv; type: organism-based; details: in vivo
[17] = Metabolic stability in CD1 mouse blood at 1.5 MBq, iv after 30 mins; type: ADME, organism-based; details: read-out: Stability
[18] = Metabolic stability in CD1 mouse brain at 1.5 MBq, iv after 30 mins; type: ADME, organism-based; details: read-out: Stability
[19] = Half life in iv dosed baboon thalamus; type: ADME, organism-based; details: papio anubis
[20] = Metabolic stability in iv dosed baboon blood after 60 mins; type: ADME, organism-based; details: papio anubis, read-out: Stability
[21] = Displacement of [3H]epibatidine from nAChR in rat cerebral cortex membrane; type: cell membranes
[22] = Lipophilicity, log D at pH 7.4; type: physicochemical; details: buffer
[23] = target: Neuronal acetylcholine receptor; alpha4/beta2 (Rattus norvegicus, UniProt P09483+P12390); assay: Displacement of [3H]epibatidine from rat alpha4beta2 nAChR expressed in HEK293 cells; type: cell-based
Neuronal acetylcholine receptor; alpha4/beta2 (Rattus norvegicus, UniProt P09483+P12390), sequence (P09483 whole entry): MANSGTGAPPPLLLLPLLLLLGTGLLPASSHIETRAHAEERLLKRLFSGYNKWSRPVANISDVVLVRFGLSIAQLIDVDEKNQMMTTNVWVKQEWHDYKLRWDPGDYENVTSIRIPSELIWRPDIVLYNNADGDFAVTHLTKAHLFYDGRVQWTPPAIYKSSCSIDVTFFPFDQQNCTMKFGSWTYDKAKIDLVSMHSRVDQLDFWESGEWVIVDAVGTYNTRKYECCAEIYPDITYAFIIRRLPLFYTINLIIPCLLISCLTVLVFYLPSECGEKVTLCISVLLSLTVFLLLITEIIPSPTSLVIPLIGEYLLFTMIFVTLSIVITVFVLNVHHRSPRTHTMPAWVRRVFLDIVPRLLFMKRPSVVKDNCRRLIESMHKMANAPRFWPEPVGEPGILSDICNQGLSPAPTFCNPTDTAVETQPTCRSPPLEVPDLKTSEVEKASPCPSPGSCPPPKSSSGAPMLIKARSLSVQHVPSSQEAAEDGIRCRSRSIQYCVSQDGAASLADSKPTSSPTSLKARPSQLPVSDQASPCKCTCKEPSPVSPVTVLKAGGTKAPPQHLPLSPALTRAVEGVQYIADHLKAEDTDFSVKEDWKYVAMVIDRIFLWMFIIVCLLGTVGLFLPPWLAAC
Neuronal acetylcholine receptor; alpha4/beta2 (Rattus norvegicus, UniProt P09483+P12390), sequence (P12390 whole entry): as the sequence (P12390 whole entry) above

[24] = target: Neuronal acetylcholine receptor subunit alpha-6 (Rattus norvegicus, UniProt P12390+P43143); assay: Displacement of [3H]epibatidine from rat alpha6beta2 nAChR expressed in HEK293 cells; type: cell-based
Neuronal acetylcholine receptor subunit alpha-6, sequence (P43143 whole entry, one chain of several): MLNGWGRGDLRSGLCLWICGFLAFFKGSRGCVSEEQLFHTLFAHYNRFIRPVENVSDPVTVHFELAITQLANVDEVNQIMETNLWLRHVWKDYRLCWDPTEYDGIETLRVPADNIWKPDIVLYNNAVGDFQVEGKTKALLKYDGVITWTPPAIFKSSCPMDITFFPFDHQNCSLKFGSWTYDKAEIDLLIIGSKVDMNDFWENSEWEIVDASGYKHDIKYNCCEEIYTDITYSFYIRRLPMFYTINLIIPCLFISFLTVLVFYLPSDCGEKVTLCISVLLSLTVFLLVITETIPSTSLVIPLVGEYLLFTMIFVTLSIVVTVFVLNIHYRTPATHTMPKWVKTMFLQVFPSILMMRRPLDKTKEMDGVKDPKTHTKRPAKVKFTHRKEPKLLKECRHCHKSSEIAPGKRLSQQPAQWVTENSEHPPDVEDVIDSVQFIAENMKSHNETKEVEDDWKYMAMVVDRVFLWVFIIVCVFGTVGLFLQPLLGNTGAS

[25] = target: Neuronal acetylcholine receptor; alpha4/beta4 (Rattus norvegicus, UniProt P09483+P12392); assay: Displacement of [3H]epibatidine from rat alpha4beta4 nAChR expressed in HEK293 cells; type: cell-based
Neuronal acetylcholine receptor; alpha4/beta4, sequence (P09483 whole entry): as the sequence (P09483 whole entry) above
Neuronal acetylcholine receptor; alpha4/beta4, sequence (P12392 whole entry): as the sequence (P12392 whole entry) above

Mus musculus [26] = assay: Toxicity in CD1 mouse at 0.002 umol/kg, iv; type: organism-based; details: in vivo
Mus musculus [27] = assay: Toxicity in CD1 mouse assessed as reduced locomotor activity at 2.0 umol/kg, iv; type: organism-based; details: in vivo
Mus musculus [28] = assay: Toxicity in CD1 mouse at 0.05 umol/kg, iv; type: organism-based; details: in vivo
[29] = target: T1, Neuronal acetylcholine receptor; alpha4/beta2 (Homo sapiens, UniProt P17787+P43681); assay: Binding affinity to human alpha4beta2 nAChR expressed in human SHEP1 cells; type: cell-based
T1 sequence (P17787 whole entry): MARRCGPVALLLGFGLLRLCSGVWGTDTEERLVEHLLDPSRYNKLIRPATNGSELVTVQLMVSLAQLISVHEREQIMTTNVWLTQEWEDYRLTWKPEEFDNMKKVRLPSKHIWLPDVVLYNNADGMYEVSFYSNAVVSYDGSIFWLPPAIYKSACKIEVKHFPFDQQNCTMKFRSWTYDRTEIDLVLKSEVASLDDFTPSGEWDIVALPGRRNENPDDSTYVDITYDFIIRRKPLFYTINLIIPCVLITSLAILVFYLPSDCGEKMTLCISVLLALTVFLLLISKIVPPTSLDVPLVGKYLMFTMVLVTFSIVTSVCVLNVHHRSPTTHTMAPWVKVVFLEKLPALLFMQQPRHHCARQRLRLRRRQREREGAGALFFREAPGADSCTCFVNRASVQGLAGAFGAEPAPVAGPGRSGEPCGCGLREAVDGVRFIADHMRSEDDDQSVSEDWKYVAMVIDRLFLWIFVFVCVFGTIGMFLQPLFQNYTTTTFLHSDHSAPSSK
T1 sequence (P43681 whole entry): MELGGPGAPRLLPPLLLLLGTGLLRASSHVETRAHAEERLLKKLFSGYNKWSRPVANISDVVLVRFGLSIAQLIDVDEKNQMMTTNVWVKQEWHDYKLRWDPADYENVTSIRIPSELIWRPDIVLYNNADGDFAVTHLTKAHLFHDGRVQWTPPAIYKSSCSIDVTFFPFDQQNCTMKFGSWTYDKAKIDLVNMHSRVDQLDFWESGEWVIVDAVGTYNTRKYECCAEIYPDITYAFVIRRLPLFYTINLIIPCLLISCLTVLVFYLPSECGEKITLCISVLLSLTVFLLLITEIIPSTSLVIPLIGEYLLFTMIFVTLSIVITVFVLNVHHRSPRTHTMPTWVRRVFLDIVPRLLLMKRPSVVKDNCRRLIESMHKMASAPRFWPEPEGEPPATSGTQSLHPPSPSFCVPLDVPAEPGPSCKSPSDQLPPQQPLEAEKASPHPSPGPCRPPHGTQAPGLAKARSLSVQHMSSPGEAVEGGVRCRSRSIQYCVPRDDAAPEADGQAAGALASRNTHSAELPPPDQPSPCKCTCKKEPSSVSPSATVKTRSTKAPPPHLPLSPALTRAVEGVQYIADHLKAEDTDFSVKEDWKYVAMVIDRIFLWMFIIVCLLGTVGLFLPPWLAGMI

Mus musculus [30] = assay: Toxicity in CD1 mouse at 0.2 umol/kg, iv; type: organism-based; details: in vivo
[31] = target: T1, Neuronal acetylcholine receptor; alpha4/beta2; assay: Antagonist activity at human alpha4beta2 nAChR expressed in human SHEP1 cells assessed as reduction in peak amplitude at 1 uM by whole cell patch clamp technique in presence of acetylcholine; type: functional, cell-based; set-up: scale not given: the % may be the effect or the level left

SMILES: [18F]c1ncccc1OC[C@@H]1CCN1
- Ki [1]: 3680 nM
- Activity (Mus musculus [2]): Toxic
- half-life [3]: 4.5 h
- Ki [4]: 1.44 nM
- Activity (Mus musculus [5]): Toxic
- Activity (Mus musculus [6]): Toxic
- Activity (Mus musculus [7]): Toxic
- Activity (Mus musculus [8]): Toxic
- Ki [9]: 181 nM
- Activity (Mus musculus [10]): Toxic
- Activity (Mus musculus [11]): Toxic
- Ki [12]: 3.02 nM
- Activity (Mus musculus [13]): Toxic

SMILES: [18F]c1ccc(OC[C@@H]2CCN2)cn1
- Activity (Mus musculus [14]): Toxic
- Activity (Mus musculus [15]): Toxic
- Activity (Mus musculus [16]): Toxic

SMILES: CN1[C@@H]2CC[C@@H]1[C@@H](c1cncc(-c3cccc([18F])n3)c1)C2
- remaining at 0.5 h [17]: 12.3%
- remaining at 0.5 h [18]: 92.5%
- half-life [19]: 1.33 h
- remaining at 1 h [20]: 14.9%

SMILES: CN1[C@@H]2CC[C@@H]1[C@@H](c1cncc(-c3cccnc3[18F])c1)C2
- half-life [19]: 3.5 h

SMILES: CN1[C@@H]2CC[C@@H]1[C@@H](c1cncc(-c3cccnc3F)c1)C2 (racemic)
- Ki [21]: 0.16 nM
- logD [22]: 0.67

SMILES: CN1[C@@H]2CC[C@@H]1[C@@H](c1cncc(-c3ccnc(F)c3)c1)C2 (racemic)
- logD [22]: 0.74

SMILES: CN1C2CCC1C(c1cncc(-c3ccc([18F])nc3)c1)C2 (single isomer, unassigned; (+))
- Ki [21]: 2.1 nM

SMILES: CN1C2CCC1C(c1cncc(-c3ccc(F)nc3)c1)C2 (single isomer, unassigned; (-))
- Ki [1]: 30 nM
- Ki [4]: 0.009 nM
- Ki [23]: 0.011 nM
- Ki [9]: 0.51 nM
- Ki [12]: 0.093 nM
- Ki [24]: 0.047 nM
- Ki [25]: 0.31 nM
- Ki [21]: 0.05 nM
- logD [22]: 0.46

SMILES: CN1[C@@H]2CC[C@@H]1[C@@H](c1cncc(-c3ccnc(F)c3)c1)C2 (stereo in doubt; (+)-6a)
- Ki [21]: 1.29 nM

SMILES: CN1[C@@H]2CC[C@@H]1[C@@H](c1cncc(-c3cccnc3F)c1)C2 (stereo in doubt; (+)-6b)
- Ki [21]: 7.35 nM

SMILES: CN1[C@@H]2CC[C@@H]1[C@@H](c1cncc(-c3cccc(F)n3)c1)C2 (stereo in doubt; (+)-6c)
- Ki [21]: 4.67 nM

SMILES: CN1[C@@H]2CC[C@@H]1[C@@H](c1cncc(-c3ccnc(F)c3)c1)C2 (stereo in doubt; (-)-6a)
- Ki [1]: 39 nM
- Ki [4]: 0.015 nM
- Ki [23]: 0.019 nM
- Ki [9]: 0.84 nM
- Ki [12]: 0.13 nM
- Ki [24]: 0.031 nM
- Ki [25]: 0.58 nM
- Ki [21]: 0.11 nM

SMILES: CN1[C@@H]2CC[C@@H]1[C@@H](c1cncc(-c3cccnc3F)c1)C2 (stereo in doubt; (-)-6b)
- Ki [1]: 41 nM
- Ki [4]: 0.034 nM
- Ki [23]: 0.058 nM
- Ki [9]: 0.66 nM
- Ki [12]: 0.68 nM
- Ki [24]: 0.021 nM
- Ki [25]: 0.71 nM
- Ki [21]: 0.05 nM

SMILES: CN1[C@@H]2CC[C@@H]1[C@@H](c1cncc(-c3cccc(F)n3)c1)C2 (stereo in doubt; (-)-6c) [listing 1 of 2 here]
- Ki [1]: 310 nM
- Activity (Mus musculus [26]): Non-toxic
- Activity (Mus musculus [27]): Non-toxic
- Activity (Mus musculus [28]): Non-toxic
- Kd [29]: 0.54 nM
- Ki [4]: 0.26 nM
- Ki [23]: 0.26 nM
- Ki [9]: 7.8 nM
- Ki [12]: 4 nM
- Activity (Mus musculus [30]): Non-toxic
- Ki [24]: 0.95 nM
- Ki [25]: 6.2 nM
- Ki [21]: 0.31 nM
- logD [22]: 0.99

SMILES: CN1[C@@H]2CC[C@@H]1[C@@H](c1cncc(-c3cccc(F)n3)c1)C2 (stereo in doubt; (-)-6c) [listing 2 of 2 here]
- Activity [31]: 14%

SMILES: Clc1ccc(C2CC3CCC2N3)cn1 (centres undefined) [EPIBATIDINE]
- Ki [21]: 0.045 nM
